Source: US5109025A, “Therapeutic agent for penal disorders” (Dainippon Ink and Chemicals, Inc., priority 1988, dated 1992)
Structures can show the parent of a compound that is named as a salt.

Columns and labels:
[1] = test system: hydrochloric acid-ethanol-induced ulcer; experiment: Antiulcer activity: HCl-ethanol ulcer model test; assay type: in vivo, SD male rats; settings: for Inhibition Ratio (ulcer) / Ulcer Index: Dose 100 (unit not given), oral, n = 5 rats; for Ulcer Index: **: P < 0.01 vs control group (46.7 ± 34.6)
Procedure: Antiulcer activity was tested using hydrochloric acid-ethanol-induced ulcer model test which is widely used for evaluating the effectiveness of antiulcer drugs.
A group of five SD male rats each weighing from 200 to 250 g were starved for 24 hours, and then administered orally with 1.0 ml/200 g of 150 mM hydrochloric acid-60% ethanol. After 1 hour, the animals were sacrificed with ether, and the stomach was taken out from each animal. After pouring 10 ml of physiological saline in each of them the stomachs were dipped in 1% formalin solution for 10 minutes to fix them. Each of the stomachs was incised along the greater curvature (curvatura ventriculi major) and the lengths of mucosal ulcers which appeared in the gastric gland portion were measured under microscope (×10). The sum of the lengths per animal was calculated and defined as ulcer index. Test drugs were administered orally in a dose of 1,0 ml/200 g after 10 minutes from the induction of stress. Cetraxate hydrochloride known as antiulcer drug was used as positive comparative compound.

ddy mice = experiment: Toxicity test: minimum lethal dose; assay type: in vivo; settings: 5-week old male ddy mice
Procedure: In this example, tests were conducted to confirm the safety of THC, which is the active ingredient of the drug of the present invention.
THC was administered by oral administration or intraperitoneal injection to five 5-week old male ddy mice.

[2] = test system: carragheenin-induced paw edema; experiment: Antiinflammatory activity: carragheenin-induced paw edema; assay type: in vivo, SD male rat; settings: 300 mg/kg, oral, 60 minutes before carragheenin; rat
Procedure: The antiinflammatory activity of THC was tested by using carragheenin-induced paw edema method widely used for the evaluation of the effectiveness of general antiinflammatory drugs (NSAID).
A 1%-λ-carragheenin physiological saline solution (0.1 ml) was subcutaneously injected to the right paw of an SD male rat weighing from 200 to 250 g, and the volume of paw was measured after 30, 60, 90, 120, 180 and 300 minutes, respectively. The test drug (THC) had been administered orally in a dosage of 1.0 ml/200 g 60 minutes before the administration of carragheenin. The control group was administered orally with the solvent only in the same dosage. Edema ratio was calculated according to the following equation.
Edema Ratio=[(Ps-P0)/P0 ]×100
where Ps stands for value measured at a point in time after elapse of a predetermined time, and P0 value indicates a value measured at 0 minute after the administration.

mast cells = experiment: Antiallergic activity: inhibition of histamine liberation from mast cells by Compound 48/80; assay type: cell-based, rat; settings: for Liberation Ratio of Histamine / inhibition at 30 µM: 0.03 mM, Compound 48/80-induced; for Liberation Ratio of Histamine: control 82.4, blank 3.4; for inhibition at 30 µM: Rattus norvegicus, Mast cell, read-out: Inhibition Ratio (histamine liberation)
Procedure: Locke's solution (10 ml) containing 0.1% by weight of bovine serum albumin was injected into the abdominal cavity of a rat which had been sacrificed by exsanguination. The rat was lightly massaged, then subjected to an abdominal section so that an abdominal solution was collected. The abdominal cavity was also washed with 5 ml of the same solution and the washing solution was collected and mixed with the above abdominal solution. The abdominal solution was centrifuged at 500 rpm for 5 minutes, then 5 ml of cool Locke's solution was added to the sediment. After the sediment had been washed, 3 ml of cool Locke's solution was again added thereto to form a solution of rat peritoneal exudation cells.
Locke's solution (0.5 ml) and 1.0 ml of THC or isoliquiritigenin solution prepared in a concentration of 0.03 mM (THC or isoliquiritigenin was dissolved in a physiological saline solution containing 1% sodium bicarbonate, the resultant solution being diluted with Locke's solution) was added to 0.3 ml of the solution of rat peritoneal exudation cells obtained in (1) above and were incubated at 37° C. for 5 minutes. Then, 0.2 ml each of a Lock's solution of Compound 48/80 (1 mg/100 ml) was added to the solution and the mixture was incubated at 37° C. for 10 minutes. After the reaction was stopped by cooling, the obtained solution was centrifuged at 2,500 rpm for 10 minutes to separate into 1.7 ml of supernatant and 0.3 ml of sediment. Water (0.1 ml) and 0.2 ml of 100% trichloroacetic acid were added to the supernatant, and 1.5 ml of Locke's solution and the 100% trichloroacetic acid were added to the sediment which was then allowed to stand for 30 minutes at room temperature and was centrifuged at 3000 rpm for 15 minutes. A portion (0.35 ml) of each of the supernatant and the supernatant of the sediment was taken and 1.65 ml of water and 0.4 ml of 1N sodium hydroxide were added in turn to each of the supernatants. 0.5% OPT (orthophthalaldehyde) methanol solution (0.1 ml) was added to each of the resultant solutions which were then allowed to react at room temperature for 4 minutes. After the reaction was stopped by the addition of 0.2 ml of 2M citric acid, the fluorescence of each of the reaction solutions was measured by a fluorophotometer.
As a control, Locke's solution was added instead of the solution of THC and, as a blank, the Locke's solution was added instead of THC and Compound 48/80, the other operations being the same as those described above.
The inhibition ratio of THC or isoliquiritigenin for the liberation of histamine by Compound 48/80 is calculated from the following equations: [formula] Ps: Amount of free histamines (in the supernatant) Pr: Amount of remaining histamines (in the sediment) [formula] I: Value of A of THC or isoliquiritigenin C: Value of A of the control
B: Value of A of the blank

[3] = test system: kidney injury induced by cis-platinum; experiment: Cis-platinum-induced kidney injury model test; assay type: in vivo, ddy male mice; settings: for Blood Urea Nitrogen: 100 mg/kg/day oral, 5 days before and 5 days after 17 mg/kg s.c. cis-platinum, serum, mice, **: P < 0.01, *: P < 0.05 vs cis-platinum group (114.7 ± 18.4)
Procedure: In this example, tests were conducted to examine the therapeutical activity of THC against kidney injury induced by cis-platinum (cis-DDP) which is an anti-cancer drug and is known to have a very strong effect of inducing functional disorders of the kidney.
A group of ten ddy male mice each weighing from 20 to 25 g were orally administered with 100 mg/kg/day of THC or isoliquiritigenin (positive comparative compound) for 5 continuous days, subcutaneously injected with 17 mg/kg of cis-platinum once on the fifth day, and were treated moreover for 5 continuous days orally administered with THC or isoliquiritigenin in the same manner as above. Thereafter, blood samples were collected, and blood urea nitrogen (BUN) in the serum was measured.
In the test, a group of ten non-treated ddy male mice each weighing from 20 to 25 g were subcutaneously administered once with 17 mg/kg of cis-platinum only. This group was used as control.
For the measurement of blood urea nitrogen, there was used Urea NB-Test Wako (produced by Wako Pure Chemical Industry Co., Ltd.).

[4] = compared with isoliquiritigenin

SMILES	Inhibition Ratio (ulcer) [1]	Ulcer Index [1]	inhibitory activity against hydrochloric acid-ethanol-induced ulcer (in words) ([1]; rat)	minimum lethal dose (ddy mice; intraperitoneal injection)	minimum lethal dose (ddy mice; oral administration)	inhibitory effect against carragheenin-induced edema [2]	Liberation Ratio of Histamine (mast cells)	inhibition at 30 µM (mast cells)	inhibition effect on histamine liberation from rat mast cells caused by Compound 48/80 (in words) (mast cells; [4])	Blood Urea Nitrogen [3]	suppression of the increase in blood urea nitrogen due to kidney injury induced by cis-platinum (in words) [3, 4]
O=C(/C=C/c1ccc(O)c(O)c1)c1ccc(O)cc1O [THC, 2',3,4,4'-tetrahydroxychalcone]	97.3	1.2 ± 2.5	remarkable inhibitory activity	not less than 1,000 mg/kg	not less than 3,000 mg/kg	marked inhibitory effect	10.4%	91.1%	more potent than isoliquiritigenin	47.1 ± 12.6	more potently than isoliquiritigenin
O=C(/C=C/c1ccc(O)cc1)c1ccc(O)cc1O [isoliquiritigenin, reference compound]							71.2%	14.2%		70.6 ± 14.0	
NC[C@H]1CC[C@H](C(=O)Oc2ccc(CCC(=O)O)cc2)CC1 [Cetraxate hydrochloride, reference compound]	75.7	11.2 ± 20.0									
